Reference: patent publication EP4772514A1, “MACROCYCLIC COMPOUNDS, PREPARATION METHOD THEREFOR, AND USE THEREOF” (Genfleet Therapeutics (Shanghai) Inc., priority 2023, dated 2025)

Columns and labels:
Format in all cases: cell-based
p-ERK [1] = assay: Cell p-ERK assay (HTRF, Advance ERK phospho-T202/Y204 kit) in NCI-H441 cells; details: Homo sapiens, NCI-H441, 3 h, NCI-H441, human non-small cell lung cancer cell strain, KRAS G12V mutation; 3 h compound incubation
How it was run: (§1)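 Cells with endogenous KRAS mutations, AsPC-1 (G12D) and NCI-H441 (G12V), were plated overnight and then exposed to compound for 3 h at 37 °C (final 0.1% DMSO, 10% FBS medium). ERK T202/Y204 phosphorylation in lysates was read by HTRF, and IC50 was derived from four-parameter curves of inhibition relative to DMSO and blank controls.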

AsPC-1 cells = assay: 3D cell proliferation assay (CellTiter Glo-3D) in AsPC-1 cells; details: ASPC1, 120 h; AsPC-1, human pancreatic cancer cell strain, KRAS G12D mutation; 3D culture, 2% FBS, 5 days; read-out: AsPC-1 AP IC50
Source text: MIA PaCa-2 cells were purchased from ATCC, Cat. No. CRL-1420; AsPC-1 cells were purchased from ATCC, Cat. No. CRL-1682; NCI-H441 cells were purchased from ATCC, Cat. No. HTB-174; NCI-H1975 cells were purchased from ATCC, Cat. No. CRL-5908; DMEM medium was purchased from Gibco, Cat. No. 11995-065; RPMI-1640 medium was purchased from Gibco, Cat. No. 11875-093; FBS was purchased from Gibco, Cat. No. 10099-141C; penicillin/streptomycin double-antibiotic solution (PS) was purchased from Gibco, Cat. No. 15140-122; Horse serum was purchased from Gibco, Cat. No. 16050130; trypsin (containing EDTA) was purchased from Gibco, Cat. No. 25200-072; DMSO was purchased from VWRAMRESCO, Cat. No. 0231-500ML; 384-well cell culture plates were purchased from Corning, Cat. No. 3830; white-bottomed, opaque 384-well assay plates were purchased from Corning, Cat. No. 3570; CellTiter Glo-3D kit was purchased from Promega, Cat. No. G9683; cell counter was purchased from CHEMOMETEC, model: NC-200; microplate reader was purchased from PerkinElmer, model: EnVision.
MIA PaCa-2, a human pancreatic cancer cell strain endogenously containing a KRAS^G12Cmutation, was cultured in a complete medium containing DMEM + 10% FBS + 2.5% Horse serum + 1% PS. AsPC-1, a human pancreatic cancer cell strain endogenously containing a KRAS^G12D mutation, was cultured in a complete medium containing RPMI-1640 + 10% FBS + 1% PS. NCI-H441 cells, a human lung cancer cell strain endogenously containing a KRAS^G12V mutation, were cultured in a complete medium containing RPMI-1640 + 10% FBS + 1% PS. NCI-H1975, a KRAS wild-type human lung cancer cell strain whose cell proliferation […], was cultured in a complete medium containing RPMI-1640 + 10% FBS + 1% PS.
The cells were digested with trypsin (containing EDTA), collected in their respective low-serum complete media containing 2% FBS (for MIA Paca-2 cell culture: DMEM + 2% FBS + 0.5% Horse serum + 1% PS), and counted. After the cell density was adjusted as required, MIA PaCa-2 cells (200 cells/well), AsPC-1 cells (800 cells/well), NCI-H441 cells (800 cells/well), or NCI-H1975 cells (400 cells/well) were seeded into a 384-well cell culture plate, with the volume of the medium in each well being 45 µL. The cell culture plate was incubated in an incubator at 37 °C with 5% CO2 overnight. A series of 3.16-fold gradient dilutions of a 1000× compound stock solution were prepared with DMSO, and then diluted 100-fold with the complete medium containing 2% FBS described above to give 10× compound stock solutions. On the day after cell seeding, 5 µL of the 10× compound stock solution was added to each cell culture well. As a result, the final concentration of the compound in the cell culture well became 1×, and the DMSO content in the well was 0.1%. In addition to the compound-treated wells described above, cell-containing DMSO control wells (with 5 µL of the complete medium containing 1% DMSO added to each well) and cell-free medium control wells (containing 50 µL of the complete medium with 2% FBS) were also set. The culture plate was incubated in an incubator at 37 °C with 5% CO2 for another 5 days, and then 30 µL of CellTiter-Glo working solution was added to each well. The mixture was well mixed, incubated for 30 min, left to stand at room temperature for 30 min, and then transferred to a white-bottomed, opaque 384-well assay plate at 40 µL/well. The chemiluminescence values (RLU) were measured using a microplate reader, and the cell proliferation inhibition rate for each well was calculated: IR(%) = (RLUDMSO - RLUcompound)/(RLUDMSO - RLUblank) × 100%, where RLUDMSO is the average RLU signal value from the DMSO control well samples, RLUblank is the average RLU signal value from the medium control well samples, and RLUcompound is the RLU signal value from the compound-treated well samples. […]

NCI-H441 cells = assay: 3D cell proliferation assay (CellTiter Glo-3D) in NCI-H441 cells; details: Homo sapiens, NCI-H441, 120 h, NCI-H441, human lung cancer cell strain, KRAS G12V mutation; 3D culture, 2% FBS, 5 days; read-out: H441 AP IC50
How it was run: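 After a 5-day exposure at 37 °C to 3.16-fold serial dilutions (final DMSO 0.1%) in 2% FBS RPMI-1640, ATP luminescence (CellTiter-Glo 3D) was read. Cells were AsPC-1 (KRAS G12D) or NCI-H441 (KRAS G12V), 800 per well; inhibition used DMSO and medium-only controls, with four-parameter curve fitting giving IC50.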

p-ERK [2] = assay: Cell p-ERK assay (HTRF, Advance ERK phospho-T202/Y204 kit) in AsPC-1 cells; details: ASPC1; AsPC-1, human pancreatic cancer cell strain, KRAS G12D mutation; 3 h compound incubation
How it was run: as §1

Structure (SMILES)	IC50 (p-ERK [1])	IC50 (AsPC-1 cells)	IC50 (NCI-H441 cells)	IC50 (p-ERK [2])
CO[C@@H](C)c1ncc(C#CCN2CCC(C#N)(CN)CC2)cc1-c1c2c(nn1C(C)C)/C=C/c1csc(n1)C[C@H](NC(=O)[C@H]1[C@H](C)[C@@H]1C)C(=O)N1CCC[C@H](N1)C(=O)OCC(C)(C)C2 (atropisomer, axis not shown; (Ra)) [Compound Z62]	3.5 nM	5.12 nM	4.56 nM	4.9 nM
CCn1cc2c(c1-c1cc(C#CCN3CCC(C#N)(CN)CC3)cnc1[C@H](C)OC)CC(C)(C)COC(=O)[C@@H]1CCCN(N1)C(=O)[C@@H](NC(=O)[C@H]1[C@@H]3COC[C@@H]31)Cc1nc(cs1)/C=C/2 (atropisomer, axis not shown; (Ra)) [Compound Z66]	0.38 nM	0.24 nM	0.18 nM	0.16 nM
CCn1c(F)c2c(c1-c1cc(C#CCN3CCOCC3)cnc1[C@H](C)OC)CC(C)(C)COC(=O)[C@@H]1CCCN(N1)C(=O)[C@@H](NC(=O)[C@H]1[C@H](C)[C@@H]1C)Cc1nc(cs1)/C=C/2 (atropisomer, axis not shown; (Ra)) [Compound Z229, (1r, 2R, 3S)-N-((4^2Z, 8^3S, 2E,6S)-1^1-ethyl-1^2-fluoro-(Ra)-1^5-(2-((S)-1-methoxyethyl)-5-(3-morpholinoprop-yn-1-yl)pyridin-3-yl)-12,12-dimethyl-7,9-dioxo-8^1,8^2,8^3,8^4,8^5,8^6-hexahydro-1^1H-10-oxa-4(4,2)-thiazola-8(1,3)-pyridazina-1(3,4)-pyrrolacyclotridecaphan-2-en-6-yl)-2,3-dimethylcyclopropane-1-carboxamide]	0.6 nM	0.56 nM	0.56 nM	1.04 nM
CO[C@@H](C)c1ncc(C#CCN2CCS(=O)(=O)CC2)cc1-c1c2c(cn1C(C)C)/C=C/c1csc(n1)C[C@H](NC(=O)[C@H]1[C@H](C)[C@@H]1C)C(=O)N1CCC[C@H](N1)C(=O)OCC(C)(C)C2 (single isomer, unassigned) [Compound Z10]	0.83 nM	0.56 nM	0.42 nM	1.2 nM
CO[C@@H](C)c1ncc(C#CCN2CCS(=O)(=O)CC2)cc1-c1c2c(nn1C(C)C)/C=C/c1csc(n1)C[C@H](NC(=O)[C@H]1[C@H](C)[C@@H]1C)C(=O)N1CCC[C@H](N1)C(=O)OCC(C)(C)C2 (atropisomer, axis not shown) [Compound Z15A, (1r,2R,3S)-N-((4^2Z,8^3S,2E,6S)-1^5-(5-(3-(1,1-dioxidothiomorpholino)prop-1-yn-1-yl)-2-((S)-1-methoxyethyl)pyridin-3-yl)-1^1-isopropyl-12,12-dimethyl-7,9-dioxo-8^1,8^2,8^3,8^4,8^5 3^6-hexahydro-1^1H-10-oxa-4(4,2)-thiazola-8(1,3)-pyridazina-1(3,4)-pyrrolacyclotridecaphan-2-en-6-yl)-2,3-dimethylcyclopropane-1-carboxamide]	7.99 nM	22.7 nM	7.63 nM	30 nM
CCn1cc2c(c1-c1cc(N3CCN(C)CC3)cnc1[C@H](C)OC)CC(C)(C)COC(=O)[C@@H]1CCCN(N1)C(=O)[C@@H](NC(=O)[C@H]1[C@H](C)[C@@H]1C)Cc1nc(cs1)/C=C/2 (single isomer, unassigned) [Compound Z8]	4.74 nM	2.37 nM	2.39 nM	4.98 nM
CCn1nc2c(c1-c1cc(C#CCN3CCC(C#N)(CN)CC3)cnc1[C@H](C)OC)CC(C)(C)COC(=O)[C@@H]1CCCN(N1)C(=O)[C@@H](NC(=O)[C@H]1[C@H](C)[C@@H]1C)Cc1nc(cs1)/C=C/2 [Compound Z119]	1.81 nM	2.39 nM	1.45 nM	2.29 nM
CCn1c(F)c2c(c1-c1cc(C#CCN3CCC(C#N)(CN)CC3)cnc1[C@H](C)OC)CC(C)(C)COC(=O)[C@@H]1CCCN(N1)C(=O)[C@@H](NC(=O)[C@H]1[C@H](C)[C@@H]1C)Cc1nc(cs1)/C=C/2 (atropisomer, axis not shown; (Ra)) [Compound Z145, (1r,2R,3S)-N-((4^2Z, 8^3S, 2E, 6S)-(Ra)-1^5-(5-(3-(4-(aminomethyl)-4-cyanopiperidin-1-yl)prop-1-yn-1-yl)-2-((S)-1-methoxyethy)pyridin-3-yl)-1^1-ethyl-1^2-fluoro-12,12-dimethyl-7,9-dioxo-8^1,8^2,8^3,8^4,8^5,8^6-hexahydro-1^1H-10-oxa-4(4,2)-thiazola-8(1,3)-pyridazina-1(3,4)-pyrrolacyclotridecaphan-2-en-6-yl)-2,3-dimethylcyclopropane-1-carboxamide]	0.29 nM	0.15 nM	0.2 nM	0.15 nM
CCn1cc2c(c1-c1cc(C#CCN3CCC3)cnc1[C@H](C)OC)CC(C)(C)COC(=O)[C@@H]1CCCN(N1)C(=O)[C@@H](NC(=O)[C@H]1[C@H](C)[C@@H]1C)Cc1nc(cs1)/C=C/2 (atropisomer, axis not shown; (Ra)) [Compound Z70, (1r,2R,3S)-N-((4^2Z, 8^3S,2E,6S)-(Ra)-1^5-(5-(3-(azetidin-1-yl)prop-1-yn-1-yl)-2-((S)-1-methoxyethyl)pyridin-3-yl)-1^1-ethyl-12,12-dimethyl-7,9-dioxo-8^1,8^2,8^3,8^4,8^5,8^6-hexahydro-1^1H-10-oxa-4(4,2)-thiazola-8(1,3)-pyridazina-1(3,4)-pyrrolacyclotridecaphan-2-en-6-yl)-2,3-dimethylcyclopropane-1-carboxamide]	2.03 nM	1.54 nM	1.12 nM	3.6 nM
CCn1cc2c(c1-c1cc(C#CCN3CCS(=O)(=O)CC3)cnc1[C@H](C)OC)CC(C)(C)COC(=O)[C@@H]1CCCN(N1)C(=O)[C@@H](NC(=O)[C@H]1[C@@H]3COC[C@@H]31)Cc1nc(cs1)/C=C/2 (atropisomer, axis not shown; (Ra)) [Compound Z130, (1R,5S,6r)-N-((4^2Z,8^3S,2E,6S)-(Ra)-1^5-(5-(3-(1,1-dioxidothiomorpholino)prop-1-yn-1-yl)-2-((S)-1-methoxyethyl)pyridin-3-yl)-1^1-ethyl-12,12-dimethyl-7,9-dioxo-8^1,8^2,8^3,8^4,8^5,8^6-hexahydro-1^1H -10-oxa-4(4,2)-thiazola-8(1,3)-pyridazina-1(3,4)-pyrrolacyclotridecaphan-2-en-6-yl)-3-oxabicyclo[3.1.0]hexane-6-carboxamide]	0.54 nM	0.36 nM	0.41 nM	0.94 nM
